Values of other authors in US20140082761A1, “METHODS TO INCREASE PLANT PRODUCTIVITY” (PLANT SENSORY SYSTEMS, LLC, priority 2011, published 2014).

Assays:
[1] = target: T1, sulfinoalanine decarboxylase (SAD) (Rattus norvegicus, UniProt Q64611); conditions: substrate of SAD (decarboxylation); literature values
T1 construct: in vitro assays on SAD isolated from rat; host or cells: enzyme isolated from rat
T1 sequence (Q64611 1-493): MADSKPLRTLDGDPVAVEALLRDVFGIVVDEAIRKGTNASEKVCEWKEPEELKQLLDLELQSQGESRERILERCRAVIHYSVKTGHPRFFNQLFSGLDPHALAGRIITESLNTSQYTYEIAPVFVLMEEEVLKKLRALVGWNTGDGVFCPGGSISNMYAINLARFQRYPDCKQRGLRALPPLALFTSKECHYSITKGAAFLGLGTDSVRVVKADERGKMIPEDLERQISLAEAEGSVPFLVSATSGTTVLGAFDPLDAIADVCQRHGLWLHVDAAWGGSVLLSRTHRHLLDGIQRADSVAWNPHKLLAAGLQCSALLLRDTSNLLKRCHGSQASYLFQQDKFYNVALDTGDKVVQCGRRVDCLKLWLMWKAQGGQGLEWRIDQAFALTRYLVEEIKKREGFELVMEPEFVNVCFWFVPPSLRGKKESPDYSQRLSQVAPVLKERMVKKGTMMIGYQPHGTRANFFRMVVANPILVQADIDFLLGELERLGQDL

Structure (SMILES): N[C@@H](CCC(=O)O)C(=O)O [glutamate]
- Km [1]: 2.9 mM

Structure (SMILES): N[C@@H](CC(=O)O)C(=O)O [aspartate]
- Km [1]: 11 mM

Structure (SMILES): NCCS(=O)(=O)O [taurine, 2-aminoethane sulfonic acid]
- effect of exogenous application on plant growth and production (plants (crop)): increase crop harvest, yield, and biomass, increase seedling growth and increase photosynthetic capacity of isolated plant cells and chloroplasts
